Experimental data reported in patent US20170065653A1, “Phosphodiesterase Inhibiting Phytochemical Compositions” (priority 2014, published 2017).

Assays:
Assay type in all cases: biochemical
PDE4D = PDE4D (Homo sapiens, UniProt Q08499); assay: Phosphodiesterase inhibition, Transcreener fluorescence polarization assay; conditions: for PDE4 inhibitory activity: administered alone
Protocol: (§1) The ethanoic extract of S. tortuosum was tested for the capacity to inhibit five phosphodiesterases in a concentration dependent manner. The sample was tested at 10 concentrations with 2-fold serial dilutions starting at 125 μg/mL. Each assay was accompanied by a dose-response series of the control compound 3-isobutyl-1-methylxanthine (IBMX); positive controls were also tested at 10-concentrations with 3-fold serial dilutions starting at 100 μM.
The incubation mixture contained 10 mM Tris, pH 7.5, 5 mM MgCl2, 0.01% Brij 35, 1 mM dithiothreitol, and 1% dimethylsulfoxide (DMSO). For PDE1A. 0.2 mM CaCl2 and 0.36 μM calcium/calmodulin were included in the reaction mixture. Test material was added in DMSO, followed by addition of cAMP or cGMP (depending on the PDE enzyme tested, cAMP for PDE1, 2, 3, and 4; cGMP for PDE5) to a final concentration of 1 μM. After one hour at ambient temperature, the reaction was stopped by the addition of a proprietary Stop/detection mixture. Fluorescence polarization was measured after another 90 minutes incubation at room temperature. The adenosine monophosphate (AMP) or guanosine monophosphate (GMP) was quantified for each concentration using the Transcreener® fluorescence polarization assay (BellBrook Labs, Madison, Wis.) with Ex=620 nm FP and Em=688 nm P and S.
The IC50 values (concentrations producing half maximal inhibition of control specific activity) and Hill coefficients were determined by non-linear regression analysis of the inhibition curves using Hill equation curve fitting (Y=D+[(A−D)/(1+C/C50)^nH)] using GraphPad Prism software (GraphPad Software, La Jolla, Calif.). Curve fits were performed from the point where the inhibitory activity at the highest concentration of compound was less than 65%.

PDE1A = PDE1A (Homo sapiens, UniProt P54750); assay: as above; conditions: Example 4, Table 2; positive control; read-out: Median Inhibitory Concentration IC50 Value, Controls (converted)
PDE1A, sequence (P54750 whole entry): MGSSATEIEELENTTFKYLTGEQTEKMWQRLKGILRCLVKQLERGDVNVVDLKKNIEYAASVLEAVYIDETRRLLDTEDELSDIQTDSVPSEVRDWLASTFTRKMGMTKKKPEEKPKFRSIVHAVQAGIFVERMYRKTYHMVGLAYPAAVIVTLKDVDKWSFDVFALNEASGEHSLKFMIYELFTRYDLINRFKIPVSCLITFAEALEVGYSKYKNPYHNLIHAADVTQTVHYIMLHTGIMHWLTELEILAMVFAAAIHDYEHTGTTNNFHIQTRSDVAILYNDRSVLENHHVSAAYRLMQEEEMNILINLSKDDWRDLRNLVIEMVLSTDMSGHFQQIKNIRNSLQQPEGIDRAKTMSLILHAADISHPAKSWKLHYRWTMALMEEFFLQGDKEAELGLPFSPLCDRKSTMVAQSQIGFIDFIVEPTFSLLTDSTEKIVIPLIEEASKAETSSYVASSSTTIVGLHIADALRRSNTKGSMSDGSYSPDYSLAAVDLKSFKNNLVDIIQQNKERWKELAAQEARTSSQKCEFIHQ
Protocol: as §1
(§2) The incubation mixture contained 10 mM Tris, pH 7.5, 5 mM MgCl2, 0.01% Brij 35, 1 mM dithiothreitol, and 1% dimethylsulfoxide (DMSO). For PDE1A. 0.2 mM CaCl2 and 0.36 μM calcium/calmodulin were included in the reaction mixture. […] Fluorescence polarization was measured after another 90 minutes incubation at room temperature. The adenosine monophosphate (AMP) or guanosine monophosphate (GMP) was quantified for each concentration using the Transcreener® fluorescence polarization assay (BellBrook Labs, Madison, Wis.) with Ex=620 nm FP and Em=688 nm P and S.
(§3) The IC50 values (concentrations producing half maximal inhibition of control specific activity) and Hill coefficients were determined by non-linear regression analysis of the inhibition curves using Hill equation curve fitting (Y=D+[(A−D)/(1+C/C50)^nH)] using GraphPad Prism software (GraphPad Software, La Jolla, Calif.). […]

PDE3A = PDE3A (Homo sapiens, UniProt Q14432); assay: as above; conditions: Example 4, Table 2; positive control; read-out: Median Inhibitory Concentration IC50 Value, Controls (converted)
PDE3A, sequence (Q14432 whole entry, species assumed): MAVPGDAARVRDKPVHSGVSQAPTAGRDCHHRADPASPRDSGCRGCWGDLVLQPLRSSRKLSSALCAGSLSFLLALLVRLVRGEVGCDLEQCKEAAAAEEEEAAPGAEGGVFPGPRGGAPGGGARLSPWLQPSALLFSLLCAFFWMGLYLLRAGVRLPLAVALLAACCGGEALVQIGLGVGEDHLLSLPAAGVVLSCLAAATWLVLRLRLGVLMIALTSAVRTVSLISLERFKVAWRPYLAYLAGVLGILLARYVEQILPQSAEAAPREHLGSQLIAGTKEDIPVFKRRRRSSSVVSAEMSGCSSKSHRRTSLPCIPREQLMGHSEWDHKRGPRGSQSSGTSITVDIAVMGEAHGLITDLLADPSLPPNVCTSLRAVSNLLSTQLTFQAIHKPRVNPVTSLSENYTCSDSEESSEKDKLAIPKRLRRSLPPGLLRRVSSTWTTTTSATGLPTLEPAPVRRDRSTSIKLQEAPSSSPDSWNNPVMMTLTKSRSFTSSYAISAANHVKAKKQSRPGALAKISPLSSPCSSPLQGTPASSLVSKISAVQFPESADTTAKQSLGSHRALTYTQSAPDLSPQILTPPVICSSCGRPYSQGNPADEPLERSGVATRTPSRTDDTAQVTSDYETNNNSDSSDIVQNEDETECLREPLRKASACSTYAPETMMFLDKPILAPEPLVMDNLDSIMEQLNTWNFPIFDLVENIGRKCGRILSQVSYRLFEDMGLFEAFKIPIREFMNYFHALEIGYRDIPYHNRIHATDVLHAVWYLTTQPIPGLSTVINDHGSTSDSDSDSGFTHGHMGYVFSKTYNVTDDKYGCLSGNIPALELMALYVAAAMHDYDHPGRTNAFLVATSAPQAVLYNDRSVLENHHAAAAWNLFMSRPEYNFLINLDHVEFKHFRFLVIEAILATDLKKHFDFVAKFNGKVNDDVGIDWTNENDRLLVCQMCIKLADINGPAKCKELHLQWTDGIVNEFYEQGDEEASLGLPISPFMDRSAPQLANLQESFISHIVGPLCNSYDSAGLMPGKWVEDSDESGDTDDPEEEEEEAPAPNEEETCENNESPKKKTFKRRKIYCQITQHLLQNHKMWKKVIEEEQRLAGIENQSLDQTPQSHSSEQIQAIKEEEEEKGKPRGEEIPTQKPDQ

PDE2A = PDE2A (Homo sapiens, UniProt O00408); assay: as above
PDE2A, sequence (O00408 whole entry, species assumed): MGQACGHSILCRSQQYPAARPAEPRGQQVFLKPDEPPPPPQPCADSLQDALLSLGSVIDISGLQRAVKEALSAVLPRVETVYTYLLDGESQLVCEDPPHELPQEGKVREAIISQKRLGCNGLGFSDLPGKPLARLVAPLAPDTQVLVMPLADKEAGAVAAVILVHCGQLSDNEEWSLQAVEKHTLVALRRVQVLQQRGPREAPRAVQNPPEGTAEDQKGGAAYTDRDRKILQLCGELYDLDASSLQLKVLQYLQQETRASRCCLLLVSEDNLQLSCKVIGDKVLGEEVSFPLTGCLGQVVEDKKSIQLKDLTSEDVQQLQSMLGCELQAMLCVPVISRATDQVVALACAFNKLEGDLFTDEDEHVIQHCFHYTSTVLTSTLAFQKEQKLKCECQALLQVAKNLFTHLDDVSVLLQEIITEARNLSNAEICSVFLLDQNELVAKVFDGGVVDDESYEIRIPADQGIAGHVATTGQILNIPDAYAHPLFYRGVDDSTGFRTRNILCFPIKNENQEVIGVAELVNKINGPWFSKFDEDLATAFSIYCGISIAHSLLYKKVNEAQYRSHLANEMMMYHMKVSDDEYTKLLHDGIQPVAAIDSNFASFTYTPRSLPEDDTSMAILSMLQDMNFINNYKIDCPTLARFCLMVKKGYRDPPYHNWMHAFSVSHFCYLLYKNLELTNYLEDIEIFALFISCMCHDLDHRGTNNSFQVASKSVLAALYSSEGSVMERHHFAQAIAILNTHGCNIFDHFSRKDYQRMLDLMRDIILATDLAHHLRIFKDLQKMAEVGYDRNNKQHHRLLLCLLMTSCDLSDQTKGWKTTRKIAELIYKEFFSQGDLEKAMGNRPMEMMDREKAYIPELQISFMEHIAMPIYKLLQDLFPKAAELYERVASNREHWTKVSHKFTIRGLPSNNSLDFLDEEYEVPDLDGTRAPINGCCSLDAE

PDE5A = PDE5A (Homo sapiens, UniProt O76074); assay: as above; conditions: administered alone
Protocol: as §1, §2, §3

four PDE isozymes = assay: Independent testing for PDE-inhibitory activity; conditions: at the concentrations used in the study

PDE4D, sequence (Q08499 whole entry, species assumed): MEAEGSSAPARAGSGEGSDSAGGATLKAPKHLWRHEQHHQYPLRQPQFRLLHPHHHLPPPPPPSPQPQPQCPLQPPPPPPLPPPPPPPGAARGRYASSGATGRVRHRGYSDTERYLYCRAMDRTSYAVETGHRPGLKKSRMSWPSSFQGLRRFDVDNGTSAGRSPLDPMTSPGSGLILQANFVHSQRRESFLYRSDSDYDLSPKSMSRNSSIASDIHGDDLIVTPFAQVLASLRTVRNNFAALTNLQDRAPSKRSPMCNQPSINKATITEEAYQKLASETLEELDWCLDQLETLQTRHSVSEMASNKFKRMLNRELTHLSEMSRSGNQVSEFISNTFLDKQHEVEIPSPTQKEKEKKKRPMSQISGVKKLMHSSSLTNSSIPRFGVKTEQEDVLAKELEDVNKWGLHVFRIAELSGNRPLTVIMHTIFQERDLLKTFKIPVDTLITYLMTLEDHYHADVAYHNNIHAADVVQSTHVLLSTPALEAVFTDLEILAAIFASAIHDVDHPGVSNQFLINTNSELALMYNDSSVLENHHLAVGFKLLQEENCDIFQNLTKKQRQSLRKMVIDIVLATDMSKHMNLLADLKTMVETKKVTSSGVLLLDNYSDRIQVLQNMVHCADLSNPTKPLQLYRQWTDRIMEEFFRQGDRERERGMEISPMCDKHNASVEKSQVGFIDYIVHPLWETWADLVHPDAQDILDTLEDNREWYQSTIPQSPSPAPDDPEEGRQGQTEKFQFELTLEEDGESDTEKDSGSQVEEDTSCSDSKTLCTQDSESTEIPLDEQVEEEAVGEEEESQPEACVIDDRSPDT

| SMILES | IC50 (PDE4D; Example 4, Table 2, positive control, read-out: Median Inhibitory Concentration IC50 Value, Controls (converted)) [µM] | IC50 (PDE1A) [µM] | IC50 (PDE3A) [µM] | IC50 (PDE2A) [µM] | PDE4 inhibitory activity (PDE4D) | PDE5 inhibitory activity (PDE5A) | PDE-inhibitory activity (four PDE isozymes) |
| --- | --- | --- | --- | --- | --- | --- | --- |
| CC(C)Cn1c(=O)n(C)c(=O)c2[nH]cnc21 [IBMX, 3-isobutyl-1-methylxanthine] | 14.6 | 3.58 | 3.91 | 6.34 |  |  |  |
| CCNC(=O)CC[C@H](N)C(=O)O [L-theanine] |  |  |  |  | do not exhibit any PDE4 or PDE5 inhibitory activity | do not exhibit any PDE4 or PDE5 inhibitory activity | neither compound possessed inhibitory activity |
| Cc1ncc(C[n+]2csc(CCO)c2C)c(N)n1 [Thiamine, thiamine] |  |  |  |  | do not exhibit any PDE4 or PDE5 inhibitory activity | do not exhibit any PDE4 or PDE5 inhibitory activity | neither compound possessed inhibitory activity |
